Results taken from patent publication US20040141939A1, “Cosmetic or dermatological use of peptides for promoting adhesion between skin cells” (priority 2001, published 2004).
Peptide text beside a SMILES is read from it.

What was measured:
keratinocytes = test: Adhesion of keratinocytes to pre-treated 96 wells micro-plates (MTT, OD 560 nm against 630 nm); assay type: cell-based; conditions: Condition C: wells pre-treated 12 hours at 50 ppm; 3 hours contact with keratinocytes
Experimental: The study is carried out in 96 wells micro-plates on keratinocytes cultured in an incubator at 37° C. and 5% of CO2.
The wells of these plates are pre-treated, for 12 hours, in different ways; four conditions have been realized:
Condition A: negative control, not containing peptide;
Condition B: incubated with various peptides, made up from 3 to 25 amino acids, with a concentration of 35 ppm;
Condition C: incubated with fibronectin with a concentration of 50 ppm;
Condition D: incubated with the peptide of sequence Lys-Leu-Asp-Ala-Pro-Thr to a concentration of 5 ppm.
After 3 hours of contact with the keratinocytes, the wells are completely filled with medium, hermetically closed, turned over and agitated on a three-dimensional agitator during 20 minutes. Then the plates are emptied and the remaining medium is aspired. Then, 100 μl of MTT with 1 mg/ml are added by wells and are left for 3 hours at 37° C. and 5% CO2. The solution is finally withdrawn, then 100 μl of DMSO is added. A reading of the OD is made at 560 nm against 630 nm.
The OD is proportional to the quantity of viable cells, i.e. which adhered to the micro-plates.

[1] = Stability of the peptide by HPLC at various temperatures; assay type: physicochemical; conditions: 10^-4 M; after 8 days at 25° C.
Experimental: The Peptide Lys-Leu-Asp-Ala-Pro-Thr was analyzed with a concentration of 10^-4 M by HPLC on a column of the C18 type, and with a linear gradient water/TFA 0.1%-acetonitril/TFA 0.1%.

[2] = test system: fibroblasts and keratinocytes in culture; test: Peptide applied to fibroblasts and keratinocytes in culture, HPLC analysis of the culture medium; assay type: in vitro ADME, human; conditions: in a few hours
Experimental: A test is carried out by applying the peptide to the fibroblasts and to the keratinocytes in culture.
This assumption is then consolidated by the tests of effectiveness exposed in the following examples.

[3] = Stability of the peptide in culture medium conditioned by human fibroblasts and keratinocytes (released degradation enzymes), HPLC; assay type: in vitro ADME; conditions: medium from human fibroblasts and keratinocytes cultivated 24 hours at 37° C.; after 24 hours with peptide
Experimental: Human fibroblasts and keratinocytes were cultivated during 24 hours at 37° C. and 5% of CO2. For this period, the cells will release many degradation enzymes in the culture medium. Thereafter, the culture medium is removed to be put in the presence of the peptide.

| peptide degradation (HPLC) [1] | peptide concentration in culture medium [2] | degradation of peptide in conditioned culture medium [3] | Molecule | O.D. (adhered viable cells) (keratinocytes) |
| --- | --- | --- | --- | --- |
| – | – | – | fibronectin | 0.770 |
| no peptide degradation | decreases quickly | almost no degradation | CC(C)C[C@H](NC(=O)[C@@H](N)CCCCN)C(=O)N[C@@H](CC(=O)O)C(=O)N[C@@H](C)C(=O)N1CCC[C@H]1C(=O)N[C@H](C(=O)O)[C@@H](C)O [Lys-Leu-Asp-Ala-Pro-Thr] (H-KLDAPT-OH; N-terminus and C-terminus assumed) | – |
